Measurements: US20230295212A1 (ROME Therapeutics, Inc., priority 2022, published 2023)

Each compound was assayed against T1, LINE1 reverse transcriptase (Homo sapiens, UniProt O00370) (assay: Stable artificial-intron Cis LINE1 reporter assay (HeLa Tet-On 3G, Firefly luciferase)). Conditions: HeLa L1 artificial-intron reporter cells, doxycycline 500 ng/mL, 72 h, class symbols.
T1 construct: expressed in transfected cells; host or cells: HeLa Tet-On 3G (Takara, cat no 631183)
Assay type: cell-based
Description: Exemplary compounds, were tested for the ability to inhibit LINE1 reverse transcriptase using a stable artificial-intron Cis LINE1 reporter assay. Assay procedures and results are described below.
A stable HeLa Tet-On 3G (Takara, cat no 631183) cell line expressing a bi-directional inducible LINE1 construct was generated as described in Xie, Y. et al. “Cell division promotes efficient retrotransposition in a stable L1 reporter cell line,” Mobile DNA (2013) 4:10. Single cell clones were screened for high Luciferase expression and the highest expression Firefly expressing clone was chosen for compound testing.
Test compounds were serially diluted in DMSO and spotted in 96-well plates. Subsequently, the HeLa Li artificial-intron reporter cells were plated into the compound-containing wells (8,000 cells/well), and the cells were induced for reporter expression with doxycycline (Sigma-Aldrich cat #D9891) at a final concentration of 500 ng/mL. Luminescence was measured 72 h after plating using the Dual-Glo Luciferase Assay System (Promega cat #E2940) following the manufacturer's instructions. The Firefly Luciferase activity was used to report LINE1 activity.

T1 sequence (O00370 whole entry, looked up): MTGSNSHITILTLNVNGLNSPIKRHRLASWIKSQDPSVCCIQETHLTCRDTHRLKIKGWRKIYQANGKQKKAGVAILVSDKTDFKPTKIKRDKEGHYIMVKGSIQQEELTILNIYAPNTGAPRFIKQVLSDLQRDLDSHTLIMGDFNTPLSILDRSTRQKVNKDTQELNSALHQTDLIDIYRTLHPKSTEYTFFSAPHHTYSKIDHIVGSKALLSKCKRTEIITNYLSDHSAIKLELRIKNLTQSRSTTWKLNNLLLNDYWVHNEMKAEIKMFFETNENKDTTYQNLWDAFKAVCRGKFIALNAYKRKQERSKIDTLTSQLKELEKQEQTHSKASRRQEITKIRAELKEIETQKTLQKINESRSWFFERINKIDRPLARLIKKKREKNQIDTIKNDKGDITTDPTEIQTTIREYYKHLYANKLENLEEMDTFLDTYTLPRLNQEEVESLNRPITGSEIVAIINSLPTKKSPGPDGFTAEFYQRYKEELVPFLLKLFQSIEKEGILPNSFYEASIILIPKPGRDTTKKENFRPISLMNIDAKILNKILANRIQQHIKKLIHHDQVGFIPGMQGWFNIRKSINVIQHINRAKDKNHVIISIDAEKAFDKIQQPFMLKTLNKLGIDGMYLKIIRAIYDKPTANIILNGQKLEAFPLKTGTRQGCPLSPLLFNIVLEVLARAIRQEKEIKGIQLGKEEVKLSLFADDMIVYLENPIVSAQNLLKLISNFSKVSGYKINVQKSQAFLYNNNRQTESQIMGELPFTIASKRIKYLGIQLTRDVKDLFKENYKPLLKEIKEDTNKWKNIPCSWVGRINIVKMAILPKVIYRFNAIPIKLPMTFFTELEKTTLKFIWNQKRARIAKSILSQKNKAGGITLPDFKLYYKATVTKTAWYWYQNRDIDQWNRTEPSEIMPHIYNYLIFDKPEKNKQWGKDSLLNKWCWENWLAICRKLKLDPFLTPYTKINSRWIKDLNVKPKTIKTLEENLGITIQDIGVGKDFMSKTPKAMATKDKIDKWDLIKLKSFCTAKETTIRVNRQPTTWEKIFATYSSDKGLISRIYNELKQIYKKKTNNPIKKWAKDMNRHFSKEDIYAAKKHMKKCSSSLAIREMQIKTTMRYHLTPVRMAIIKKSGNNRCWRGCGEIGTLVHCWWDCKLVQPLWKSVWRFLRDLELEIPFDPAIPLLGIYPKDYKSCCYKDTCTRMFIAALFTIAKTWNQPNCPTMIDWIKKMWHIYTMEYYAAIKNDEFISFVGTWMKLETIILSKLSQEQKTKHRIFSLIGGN

`O=c1ccn([C@@H]2OC(CO)(CO)[C@@H](O)[C@@H]2F)c(=O)[nH]1` [Compound 3, 1-((2R,3S,4R)-3-fluoro-4-hydroxy-5,5-bis(hydroxymethyl)tetrahydrofuran-2-yl)pyrimidine-2,4(1H,3H)-dione] was tested. Which IC50 did it give?
Its IC50 is greater than 1 µM.

With `Cc1cn([C@H]2C[C@H](O)[C@](CO)(CCl)O2)c(=O)[nH]c1=O` [Compound 4, 1-((2R,4S,5R)-5-(chloromethyl)-4-hydroxy-5-(hydroxymethyl)tetrahydrofuran-2-yl)-5-methylpyrimidine-2,4(1H,3H)-dione] as the compound, how does the IC50 read?
The IC50 was greater than 1 µM.

`C#C[C@]1(CO)O[C@@H](n2cnc3c(N)nc(Cl)nc32)[C@@H](F)[C@@H]1O` [Compound 5, (2R,3R,4S,5R)-5-(6-amino-2-chloro-9H-purin-9-yl)-2-ethynyl-4-fluoro-2-(hydroxymethyl)tetrahydrofuran-3-ol] was tested. Which IC50 did it give?
The IC50 was 0.05 to 0.1 µM.

`O=c1nc(NO)ccn1[C@H]1C[C@H](O)[C@](CO)(CCl)O1` [Compound 6, 1-((2R,4S,5R)-5-(chloromethyl)-4-hydroxy-5-(hydroxymethyl)tetrahydrofuran-2-yl)-4-(hydroxyamino)pyrimidin-2(1H)-one] was tested. Which IC50 did it give?
The IC50 was 0.1 to 0.25 µM.

For `Cc1cn([C@H]2C[C@H](F)[C@](CO)(CCl)O2)c(=O)[nH]c1=O` [Compound 7, 1-((2R,4S,5R)-5-(chloromethyl)-4-fluoro-5-(hydroxymethyl)tetrahydrofuran-2-yl)-5-methylpyrimidine-2,4(1H,3H)-dione], which IC50 is on record?
Its IC50 is greater than 1 µM.

For `Nc1nc(F)nc2c1ncn2[C@H]1C[C@H](O)[C@](CO)(CCl)O1` [Compound 8, (2R,3S,5R)-5-(6-amino-2-fluoro-9H-purin-9-yl)-2-(chloromethyl)-2-(hydroxymethyl)tetrahydrofuran-3-ol], which IC50 is on record?
The IC50 was 0.1 to 0.25 µM.

How did the IC50 turn out when `Cc1cn([C@@H]2O[C@@](CO)(CCl)[C@@H](O)[C@H]2F)c(=O)[nH]c1=O` [Compound 9, 1-((2R,3R,4R,5R)-5-(chloromethyl)-3-fluoro-4-hydroxy-5-(hydroxymethyl)tetrahydrofuran-2-yl)-5-methylpyrimidine-2,4(1H,3H)-dione] was run?
The IC50 was greater than 1 µM.

With `Nc1nc(F)nc2c1ncn2[C@H]1C[C@H](O)C(CO)(CO)O1` [Compound 10, ((3S,5R)-5-(6-amino-2-fluoro-9H-purin-9-yl)-3-hydroxytetrahydrofuran-2,2-diyl)dimethanol] as the compound, how does the IC50 read?
Its IC50 is greater than 1 µM.

`Cc1cn([C@H]2C[C@H](O)[C@](CO)(CCl)O2)c(=O)nc1N` [Compound 11, 4-amino-1-((2R,4S,5R)-5-(chloromethyl)-4-hydroxy-5-(hydroxymethyl)tetrahydrofuran-2-yl)-5-methylpyrimidin-2(1H)-one] was tested. Which IC50 did it give?
Its IC50 is greater than 1 µM.

With `C[C@@H]1[C@H](n2ccc(N)nc2=O)O[C@@](CO)(CCl)[C@H]1O` [Compound 12, 4-amino-1-((2R,3S,4S,5R)-5-(chloromethyl)-4-hydroxy-5-(hydroxymethyl)-3-methyltetrahydrofuran-2-yl)pyrimidin-2(1H)-one] as the compound, how does the IC50 read?
Its IC50 is 0.25 to 1 µM.

For `CO[C@@H]1[C@H](n2ccc(N)nc2=O)O[C@@](CO)(CCl)[C@H]1O` [Compound 13, 4-amino-1-((2R,3S,4S,5R)-5-(chloromethyl)-4-hydroxy-5-(hydroxymethyl)-3-methoxytetrahydrofuran-2-yl)pyrimidin-2(1H)-one], which IC50 is on record?
Its IC50 is 0.25 to 1 µM.

Which IC50 does the source give for `Nc1ncnc2c1ncn2[C@H]1C[C@H](O)[C@](CO)(CCl)O1` [Compound 15, (2R,3S,5R)-5-(6-amino-9H-purin-9-yl)-2-(chloromethyl)-2-(hydroxymethyl)tetrahydrofuran-3-ol] here?
The IC50 was 0.25 to 1 µM.

`Nc1ccn([C@H]2C[C@H](O)[C@](CO)(C3CC3)O2)c(=O)n1` [Compound 16, 4-amino-1-((2R,4S,5R)-5-cyclopropyl-4-hydroxy-5-(hydroxymethyl)tetrahydrofuran-2-yl)pyrimidin-2(1H)-one] was tested. Which IC50 did it give?
Its IC50 is 0.25 to 1 µM.

Which IC50 does the source give for `Nc1cnn([C@H]2C[C@H](O)[C@](CO)(CCl)O2)c(=O)n1` [Compound 18, 5-amino-2-((2R,4S,5R)-5-(chloromethyl)-4-hydroxy-5-(hydroxymethyl)tetrahydrofuran-2-yl)-1,2,4-triazin-3(2H)-one] here?
The IC50 was greater than 1 µM.

For `C[C@@H]1[C@H](n2ccc(N)nc2=O)O[C@](C)(CO)[C@H]1O` [Compound 19, 4-amino-1-((2R,3S,4S,5R)-4-hydroxy-5-(hydroxymethyl)-3,5-dimethyltetrahydrofuran-2-yl)pyrimidin-2(1H)-one], which IC50 is on record?
Its IC50 is 0.25 to 1 µM.

`C#C[C@@H]1[C@H](n2ccc(N)nc2=O)O[C@](C)(CO)[C@H]1O` [Compound 20, 4-amino-1-((2R,3S,4S,5R)-3-ethynyl-4-hydroxy-5-(hydroxymethyl)-5-methyltetrahydrofuran-2-yl)pyrimidin-2(1H)-one] was tested. Which IC50 did it give?
The IC50 was greater than 1 µM.

`Nc1ccn([C@H]2C[C@H](O)[C@](CO)(C(F)(F)F)O2)c(=O)n1` [Compound 21, 4-amino-1-((2R,4S,5R)-4-hydroxy-5-(hydroxymethyl)-5-(trifluoromethyl)tetrahydrofuran-2-yl)pyrimidin-2(1H)-one] was tested. Which IC50 did it give?
The IC50 was 0.25 to 1 µM.

For `Nc1nc(=O)n([C@H]2C[C@H](O)[C@](CO)(CF)O2)cc1F` [Compound 22, 4-amino-5-fluoro-1-((2R,4S,5R)-5-(fluoromethyl)-4-hydroxy-5-(hydroxymethyl)tetrahydrofuran-2-yl)pyrimidin-2(1H)-one], which IC50 is on record?
Its IC50 is no more than 0.05 µM.

With `CC(C)C(=O)OC[C@@]1(CCl)O[C@@H](n2ccc(N)nc2=O)[C@H](F)[C@@H]1OC(=O)C(C)C` [Compound 24, (2R,3R,4R,5R)-5-(4-amino-2-oxopyrimidin-1(2H)-yl)-2-(chloromethyl)-4-fluoro-2-((isobutyryloxy)methyl) tetrahydrofuran-3-yl isobutyrate] as the compound, how does the IC50 read?
The IC50 was 0.25 to 1 µM.

`C#C[C@]1(CO)O[C@@H](n2cnc3c(N)ncnc32)C[C@@H]1O` [Compound 27, (2R,3S,5R)-5-(6-amino-9H-purin-9-yl)-2-ethynyl-2-(hydroxymethyl) tetrahydrofuran-3-ol] was tested. Which IC50 did it give?
Its IC50 is no more than 0.05 µM.

`O=c1nc(NO)ccn1[C@@H]1O[C@@](CO)(CCl)[C@@H](O)[C@H]1F` [Compound 28, 1-((2R,3R,4R,5R)-5-(chloromethyl)-3-fluoro-4-hydroxy-5-(hydroxymethyl)tetrahydrofuran-2-yl)-4-(hydroxyamino)pyrimidin-2(1H)-one] was tested. Which IC50 did it give?
Its IC50 is greater than 1 µM.

Which IC50 does the source give for `O=c1ccn([C@@H]2O[C@@](CO)(CCl)[C@@H](O)[C@H]2F)c(=O)[nH]1` [Compound 29, 1-((2R,3R,4R,5R)-5-(chloromethyl)-3-fluoro-4-hydroxy-5-(hydroxymethyl)tetrahydrofuran-2-yl)pyrimidine-2,4(1H,3H)-dione] here?
The IC50 was greater than 1 µM.

With `Cc1cn([C@H]2C[C@H](O)[C@](CO)(N=[N+]=[N-])O2)c(=O)[nH]c1=O` [Compound 30, 1-((2R,4S,5R)-5-azido-4-hydroxy-5-(hydroxymethyl)tetrahydrofuran-2-yl)-5-methylpyrimidine-2,4(1H,3H)-dione] as the compound, how does the IC50 read?
Its IC50 is greater than 1 µM.

With `Nc1ccn([C@@H]2O[C@@](CO)(CCl)[C@@H](O)[C@H]2F)c(=O)n1` [Compound 31, 4-amino-1-((2R,3R,4R,5R)-5-(chloromethyl)-3-fluoro-4-hydroxy-5-(hydroxymethyl)tetrahydrofuran-2-yl)pyrimidin-2(1H)-one] as the compound, how does the IC50 read?
The IC50 was no more than 0.05 µM.

For `C#C[C@]1(CO)O[C@@H](n2ccc(N)nc2=O)[C@H](F)[C@@H]1O` [Compound 32, 4-amino-1-((2R,3R,4R,5R)-5-ethynyl-3-fluoro-4-hydroxy-5-(hydroxymethyl)tetrahydrofuran-2-yl)pyrimidin-2(1H)-one], which IC50 is on record?
The IC50 was greater than 1 µM.

Which IC50 does the source give for `C#C[C@]1(CO)O[C@@H](n2ccc(=O)[nH]c2=O)[C@H](F)[C@@H]1O` [Compound 33, 1-((2R,3R,4R,5R)-5-ethynyl-3-fluoro-4-hydroxy-5-(hydroxymethyl)tetrahydrofuran-2-yl)pyrimidine-2,4(1H,3H)-dione] here?
The IC50 was greater than 1 µM.

`C#C[C@]1(CO)O[C@@H](n2ccc(N)nc2=O)[C@@H](F)[C@@H]1O` [Compound 35, 4-amino-1-((2R,3S,4R,5R)-5-ethynyl-3-fluoro-4-hydroxy-5-(hydroxymethyl)tetrahydrofuran-2-yl)pyrimidin-2(1H)-one] was tested. Which IC50 did it give?
The IC50 was no more than 0.05 µM.

With `C#C[C@]1(CO)O[C@@H](n2ccc(=O)[nH]c2=O)[C@@H](F)[C@@H]1O` [Compound 36, 1-((2R,3S,4R,5R)-5-ethynyl-3-fluoro-4-hydroxy-5-(hydroxymethyl)tetrahydrofuran-2-yl)pyrimidine-2,4(1H,3H)-dione] as the compound, how does the IC50 read?
Its IC50 is greater than 1 µM.

With `C#C[C@]1(CO)O[C@@H](c2ccc3c(N)ncnn23)C[C@@H]1O` [Compound 37, (2R,3S,5R)-5-(4-aminopyrrolo[2,1-f][1,2,4]triazin-7-yl)-2-ethynyl-2-(hydroxymethyl) tetrahydrofuran-3-ol] as the compound, how does the IC50 read?
Its IC50 is no more than 0.05 µM.

Which IC50 does the source give for `C#C[C@]1(CO)O[C@@H](n2cc(C)c(=O)[nH]c2=O)C[C@@H]1O` [Compound 38, 1-((2R,4S,5R)-5-ethynyl-4-hydroxy-5-(hydroxymethyl)tetrahydrofuran-2-yl)-5-methylpyrimidine-2,4(1H,3H)-dione] here?
The IC50 was greater than 1 µM.

Same assay, conditions: HeLa L1 artificial-intron reporter cells, doxycycline 500 ng/mL, 72 h, numeric bounds

With `C#C[C@@H]1[C@H](n2ccc(N)nc2=O)O[C@@](CO)(CCl)[C@H]1O` [Compound 17, 4-amino-1-((2R,3S,4S,5R)-5-(chloromethyl)-3-ethynyl-4-hydroxy-5-(hydroxymethyl)tetrahydrofuran-2-yl)pyrimidin-2(1H)-one] as the compound, how does the IC50 read?
The IC50 was greater than 30 µM.

Which IC50 does the source give for `O=c1ccn([C@H]2C[C@H](O)[C@](CO)(CCl)O2)c(=O)[nH]1` [Compound 34, 1-((2R,4S,5R)-5-(chloromethyl)-4-hydroxy-5-(hydroxymethyl)tetrahydrofuran-2-yl)pyrimidine-2,4(1H,3H)-dione] here?
The IC50 was greater than 30 µM.
